Assay results as given in patent publication US20250360167A1 (Keryx Biopharmaceuticals, Inc., priority 2013, published 2025).

Assay: BET active surface area
Format: physicochemical
Description: BET theory explains the physical adsorption of gas molecules onto a solid surface. The theory serves as the basis for the measurement of the specific surface area of a material. This theory allows the calculation of surface areas of materials in a very accurate manner and is thus capable of distinguishing differences between separate preparations of what would otherwise appear to be the same material. For example, activated carbon is a form of carbon that has been processed to make it extremely porous and thus to have a very large surface area. Activated carbon has been experimentally determined, using calculations derived from BET theory, to have a surface area of around 3000 m^2 g^−1.

[1] = Table 1, one value given per pair of samples

BET Active Surface Area [1] | BET Active Surface Area (Tables 2 and 3) [m^2/g] | SMILES
0.61 | 0.61 | O=C([O-])CC(O)(CC(=O)[O-])C(=O)[O-].[Fe+3] [RFS-12-1]
19.85 | – | O=C([O-])CC(O)(CC(=O)[O-])C(=O)[O-].[Fe+3] [STM-182-1]
